Results taken from patent US20070218002A1, “Method for Detecting Alzheimer's Disease and other Forms of Dementia, and Measuring Their Progression” (priority 2004, published 2007).
Several values for one entry are separate records, joined by “and”; a condition that tells them apart may be missing. Equal values may be shown once. Entries after “also recorded” stand apart in the source; their conditions may differ.

Columns and labels:
[1] = test system: NFTs and SPs (neurofibrillary tangles, β-amyloid senile plaques); assay: [F-18]FDDNP PET, Logan plot relative distribution volume; assay type: in vivo, human; settings: cerebellum reference
Procedure: (§1) All scans were performed with ECAT HR or ECAT HR+ scanners (Siemens-CTI, Knoxville, Tenn.). The subjects were in the supine position with the imaging plane parallel to the orbito-meatal line and with their eyes open and ears unoccluded. A 20 min transmission scan was performed to correct PET data for radiation attenuation. 320-550 MBq of a PET tracer was injected as a bolus injection via the in-dwelling venous catheter, and the consecutive dynamic head PET scans were performed for 1 hour with [F-18]FDG or for 2 hours with [F-18]MPPF or with [F-18]FDDNP.
(§2) All PET scans were decay corrected and reconstructed using filtered-back projection (Hann filter, 5 mm FWHM) with scatter and attenuation correction. The resulting images contained either 47 contiguous slices with 3.4 mm plane-to-pane separation (EXACT HR) or 63 contiguous slices with the plane-to-plane separation of 2.42 mm (EXACT HR+).
Quantitation of [F-18]FDDNP data was performed using the Logan plot graphical analysis with the cerebellum as the reference region. Distribution volume ratio (DVR) parametric images were created as described elsewhere. ROIs were drawn bilaterally on the early frames of the dynamic PET scan (3 min to 6 min post-injection) using MRI as a guide bilaterally on the transaxial images on frontal lobe, on parietal lobe, on medial temporal lobe, and on lateral temporal lobe. In addition, a single ROI was placed on posterior cingulated gyrus. DV values for cortical regions were extracted from the [F-18]FDDNP DV parametric image using the above-described ROI set. DV values were determined for all 9 cortical ROIs and for cerebellum. Relative global neocortical [F-18]FDDNP distribution volume (global DVR) was determined by dividing the DV average value of the eight neocortical ROIs with the DV average value of cerebellar ROIs. In similar fashion, regional relative distribution volumes (DVRs) were determined for frontal, parietal, lateral temporal and medial temporal areas by dividing the DV average of both ROIs from the corresponding region with the DV average value of cerebellar ROIs. The posterior cingulated gyrus DVR was determined by dividing the cingulated gyrus DV value with the DV average value of cerebellar ROIs.

[2] = test system: Tau aggregates and amyloid plaques; assay: In vitro [F-18]FDDNP digital autoradiography on brain tissue slices; assay type: binding, human
Procedure: Two AD and three control brain samples were obtained at the time of autopsy from the Alzheimer's Disease Research Center at USC Keck School of Medicine, Los Angeles. Glass mounted whole-hemisphere brain cryosections (100 μm thick), cut at the level of hippocampus, were incubated with 1.85 MBq/mL of […] in 50 mM Tris buffer/saline (pH=7.4) for 2 hours at room temperature. The samples were exposed to β^+-sensitive phosphor storage plates for 60 min, scanned in with BAS 5000 Phosphorimager, and analyzed with MacBAS software provided with the instrument (Fuji Film Medical Systems USA, Stamford, Conn.). […] All values were normalized to the inner layer, known to be well preserved in AD (16). [F-18]FDDNP autoradiography was performed as described elsewhere (17). In brief, the de-fattened tissue slices were incubated with 0.37 MBq/mL of [F-18]FDDNP in 1% ethanol in normal saline for 25 min at room temperature followed by differentiation in 60% 2-methyl-2-butanol (3 min). The sections were exposed to β^+-sensitive phosphor storage plates for 60 min and scanned in with BAS 5000 Phosphorimager.

5-HT1A receptors = target: T1, 5-HT1A receptors (Homo sapiens, UniProt P08908); assay: In vitro [F-18]MPPF digital autoradiography on whole-hemisphere brain cryosections; assay type: binding
T1 construct: Glass mounted whole-hemisphere brain cryosections (100 μm thick), cut at the level of hippocampus; from tissue; host or cells: post-mortem human brain, whole-hemisphere cryosections at the level of the hippocampus
T1 sequence (P08908 1-422): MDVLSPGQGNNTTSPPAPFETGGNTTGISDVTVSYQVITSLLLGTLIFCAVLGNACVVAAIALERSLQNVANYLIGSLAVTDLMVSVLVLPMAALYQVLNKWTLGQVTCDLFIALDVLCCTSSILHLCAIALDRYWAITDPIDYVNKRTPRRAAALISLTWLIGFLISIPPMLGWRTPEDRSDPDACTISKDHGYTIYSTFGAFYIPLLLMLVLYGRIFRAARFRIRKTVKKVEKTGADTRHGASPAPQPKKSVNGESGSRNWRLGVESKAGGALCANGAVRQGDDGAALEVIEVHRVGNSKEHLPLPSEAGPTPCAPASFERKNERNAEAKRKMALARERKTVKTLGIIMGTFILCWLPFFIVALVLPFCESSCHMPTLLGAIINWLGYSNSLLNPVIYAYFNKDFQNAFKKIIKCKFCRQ

[3] = target: T2, serotonin 5-HT1A receptors (Homo sapiens, UniProt P08908); assay: [F-18]MPPF PET, Logan plot quantitation of binding potential; assay type: in vivo
T2 construct: from tissue; host or cells: living human brain (in vivo PET; hippocampus, raphe nuclei, cortical regions)
T2 sequence (P08908 1-422): T1 sequence (P08908 1-422)
Procedure: as §1, §2
Anatomical brain magnetic resonance scans were obtained using either a 1.5 Tesla magnet (General Electric-Signa, Milwaukee, Wis.) or a 3 Tesla magnet (General Electric-Signa) scanner. […] A double echo, fast spin echo series using a 24-cm field of view and 256×256 matrix with 3 mm/0 gap (TR=6000 [3T] and 2000 [1.5T]; TE=17/85 [3T] and 30/90 [1.5T]) An inter-modality image co-registration program (7) that uses image segmentation and simulation as preprocessing procedures was used to co-register PET and anatomical MRI images of each subject. Rules for ROI drawing were based on the identification of gyral and sulcal landmarks with respect to the atlas of Talairach and Tournoux (8).
Quantitation of [F-18]MPPF binding was performed using Logan plot graphical analysis, using the cerebellum, an area largely devoid of 5-HT1A receptors, as the reference region (9). […] Tracer binding potential (BP=Bmax/Kd) parametric images were analyzed using ROIs drawn bilaterally on hippocampus, lateral temporal lobe, parietal lobe, frontal lobe, and posterior cingulate cortex, and a single ROI on the dorsal raphe nucleus using MRI as a guide. Total binding potentials (BPT, BPT=BP×volume) were determined for left and right hippocampus by multiplying the hippocampal BP values with the hippocampus volumes on co-registered MRI.

[4] = AD subjects compared to control subjects

CC(=C(C#N)C#N)c1ccc2cc(N(C)CC[18F])ccc2c1 [[F-18]FDDNP, 2-(1-{6-[(2-[F-18]fluoroethyl)(methyl)amino]-2-naphthyl}ethylidene)malononitrile]
FDDNP mean DVR ± 1 SD, Frontal Lobe ([1]; AD group): 1.11 ± 0.03
FDDNP mean DVR ± 1 SD, Global ([1]; AD group): 1.17±0.01
FDDNP mean DVR ± 1 SD, Lateral Temporal Lobe ([1]; AD group): 1.17 ± 0.03
FDDNP mean DVR ± 1 SD, Medial Temporal Lobe ([1]; AD group): 1.23 ± 0.04
FDDNP mean DVR ± 1 SD, Parietal Lobe ([1]; AD group): 1.17 ± 0.03
FDDNP mean DVR ± 1 SD, Posterior Cingulate Gyrus ([1]; AD group): 1.18 ± 0.06
FDDNP mean DVR ± 1 SD, Global ([1]; AD group, listed as FDDNP): 1.17 ± 0.01
FDDNP mean DVR ± 1 SD, Frontal Lobe ([1]; CTRL group): 1.05 ± 0.01
FDDNP mean DVR ± 1 SD, Global ([1]; CTRL group): 1.08±0.03
FDDNP mean DVR ± 1 SD, Lateral Temporal Lobe ([1]; CTRL group): 1.07 ± 0.03
FDDNP mean DVR ± 1 SD, Medial Temporal Lobe ([1]; CTRL group): 1.12 ± 0.05
FDDNP mean DVR ± 1 SD, Parietal Lobe ([1]; CTRL group): 1.07 ± 0.03
FDDNP mean DVR ± 1 SD, Posterior Cingulate Gyrus ([1]; CTRL group): 1.07 ± 0.05
FDDNP mean DVR ± 1 SD, Global ([1]; CTRL group, listed as FDDNP): 1.08 ± 0.03
FDDNP mean DVR ± 1 SD, Frontal Lobe ([1]; MCI group): 1.08 ± 0.01
FDDNP mean DVR ± 1 SD, Global ([1]; MCI group): 1.12 ± 0.01
FDDNP mean DVR ± 1 SD, Lateral Temporal Lobe ([1]; MCI group): 1.13 ± 0.03
FDDNP mean DVR ± 1 SD, Medial Temporal Lobe ([1]; MCI group): 1.19 ± 0.02
FDDNP mean DVR ± 1 SD, Parietal Lobe ([1]; MCI group): 1.09 ± 0.03
FDDNP mean DVR ± 1 SD, Posterior Cingulate Gyrus ([1]; MCI group): 1.12 ± 0.03
[F-18]FDDNP binding to gray matter, autoradiography ([2]; AD tissue): increased in the gray matter of temporal and limbic lobes; also recorded: strong [F-18]FDDNP binding to the gray matter in the temporal lobe and in cingulated gyrus
[F-18]FDDNP binding to gray matter, autoradiography ([2]; normal control brain samples): uniformly low; also recorded: none of the gray matter areas from the normal control brain samples showed [F-18]FDDNP binding above background levels in white matter

COc1ccccc1N1CCN(CCN(C(=O)c2ccc([18F])cc2)c2ccccn2)CC1 [[F-18]MPPF, 4-[F-18]fluoro-N-{2-[1-(2-methoxyphenyl)-piperazinyl]ethyl}-N-(2-pyridinyl)benzamide]
binding ratio (BR), outer layers of gray matter in the inferior temporal gyrus (5-HT1A receptors; AD cases (individual)): 1.13 and 1.16
hippocampal binding ratio (BR), CA1 field/subiculum relative to inner layer of inferior temporal gyrus gray matter (5-HT1A receptors; AD samples (individual)): 1.03 and 1.18
drop in in vitro binding, hippocampus (5-HT1A receptors; AD vs control samples): 60-70%
hippocampal binding ratio (BR), CA1 field/subiculum relative to inner layer of inferior temporal gyrus gray matter (5-HT1A receptors; control samples (individual)): 3.29 and 3.00 and 2.98
binding ratio (BR), outer layers of gray matter in the inferior temporal gyrus (5-HT1A receptors; non-demented cases (individual)): 1.46 and 1.40 and 2.01
hippocampus total binding potential (BPT=BP×volume) ([3]; AD): 2.24±0.61
[F-18]MPPF mean BP ± 1 SD, Frontal Lobe ([3]; AD group): 0.41 ± 0.13
[F-18]MPPF mean BP ± 1 SD, Lateral Temporal Lobe ([3]; AD group): 0.73 ± 0.16
[F-18]MPPF mean BP ± 1 SD, Parietal Lobe ([3]; AD group): 0.48 ± 0.13
[F-18]MPPF mean BP ± 1 SD, Posterior Cingulate Gyrus ([3]; AD group): 0.56 ± 0.20
MPPF accumulation in the hippocampi ([3]; AD patients in general): ≤ 50%
drop in dorsal raphe nucleus BP values [3, 4]: 41%
drop in hippocampus BP values [3, 4]: 27%
hippocampus BPT lower compared with controls ([3]; ADs): 49%
[F-18]MPPF mean BP ± 1 SD, Frontal Lobe ([3]; Control group): 0.49 ± 0.15
[F-18]MPPF mean BP ± 1 SD, Hippocampus ([3]; Control group): 1.62±0.07
[F-18]MPPF mean BP ± 1 SD, Lateral Temporal Lobe ([3]; Control group): 0.82 ± 0.17
[F-18]MPPF mean BP ± 1 SD, Parietal Lobe ([3]; Control group): 0.63 ± 0.15
[F-18]MPPF mean BP ± 1 SD, Posterior Cingulate Gyrus ([3]; Control group): 0.68 ± 0.06
[F-18]MPPF mean BP ± 1 SD, Raphe Nuclei ([3]; Control group): 0.63±0.09
hippocampus total binding potential (BPT=BP×volume) ([3]; MCI): 3.14±0.34
[F-18]MPPF mean BP ± 1 SD, Frontal Lobe ([3]; MCI group): 0.44 ± 0.12
[F-18]MPPF mean BP ± 1 SD, Lateral Temporal Lobe ([3]; MCI group): 0.80 ± 0.11
[F-18]MPPF mean BP ± 1 SD, Parietal Lobe ([3]; MCI group): 0.43 ± 0.11
[F-18]MPPF mean BP ± 1 SD, Posterior Cingulate Gyrus ([3]; MCI group): 0.56 ± 0.12
[F-18]MPPF mean BP ± 1 SD, Raphe Nuclei ([3]; MCI group): 0.52 ± 0.11
mean hippocampus BP value lower than in controls ([3]; MCI subjects): 13%
hippocampus BPT lower compared with controls ([3]; MCIs): 24%
hippocampus total binding potential (BPT=BP×volume) ([3]; controls): 4.40±0.22
